From publication doi:10.1101/2022.03.12.484055v1 (biorxiv, 2022)

These molecules were tested against T1, ASIC1 (hASIC1; ASIC1a as primary isoform in tsA-201 cells) (Homo sapiens, UniProt P78348) (assay: automated patch clamp, single concentration). Details: tsA201, read-out: % inhibition @ 30 µM.
T1 sequence (P78348 1-528): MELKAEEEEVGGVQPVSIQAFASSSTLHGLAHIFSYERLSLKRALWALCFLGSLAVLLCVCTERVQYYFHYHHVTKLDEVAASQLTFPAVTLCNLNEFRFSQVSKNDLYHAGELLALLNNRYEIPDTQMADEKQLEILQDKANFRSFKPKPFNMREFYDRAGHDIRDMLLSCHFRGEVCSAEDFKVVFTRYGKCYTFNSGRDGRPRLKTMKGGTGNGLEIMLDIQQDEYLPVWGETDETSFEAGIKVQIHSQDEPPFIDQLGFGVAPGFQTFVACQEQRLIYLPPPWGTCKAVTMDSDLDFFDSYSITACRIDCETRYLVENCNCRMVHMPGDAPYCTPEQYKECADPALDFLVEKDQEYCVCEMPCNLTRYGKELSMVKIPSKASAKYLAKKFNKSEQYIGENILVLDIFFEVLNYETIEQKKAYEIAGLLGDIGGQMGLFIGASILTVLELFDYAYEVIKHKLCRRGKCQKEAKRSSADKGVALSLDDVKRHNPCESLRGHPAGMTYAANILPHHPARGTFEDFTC
Assay type: cell-based

| inhibition at 30 µM [%] | Compound |
| --- | --- |
| 75 ± 1 | N=C(N)NC(=O)c1nc(-c2ccco2)c(N)nc1N [compound 14, 14] |
| 82 ± 1 | N=C(N)NC(=O)c1nc(-c2cc3cc(F)ccc3o2)c(N)nc1N [compound 23, 23] |
| 76 ± 3 | N=C(N)NC(=O)c1nc(-c2cc3cc(F)cc(F)c3o2)c(N)nc1N [compound 35, 35] |
